Source: US12369579B2, “Antimicrobial agents and compositions and uses thereof” (KODA Therapeutics, LLC, priority 2019, dated 2025)
≈ marks a conversion by molar mass, not a printed value. Like-named read-outs stand apart in the source and are kept apart here.

Tests used:
H. pylori [1] = assay: MBC by plating broth culture from the MIC assay onto Müller-Hinton agar; assay type: cell-based; conditions: Helicobacter pylori
Method: (§1) The MIC and MBC of the compounds can be measured with the following procedure: In vitro antibacterial activity was tested using the broth microdilution assay. Experiments were carried out in triplicate using Müller-Hinton broth supplemented with 10% FBS in 96-well plates at a total assay volume of 100 μL. Antimicrobials were tested against H. pylori. Two-fold serial dilutions were prepared between the concentration range 0.01-64 μg/mL. An initial bacterial inoculum was adjusted to OD600=0.06 and incubated with test compounds at 37° C. for 3 days in humidified incubators under the 5% CO2 atmosphere. OD600 was measured and the lowest concentration of compound that inhibited bacterial growth was reported as the MIC. See Gwisai T, et al. Repurposing niclosamide as a versatile antimicrobial surface coating against device-associated, hospital-acquired bacterial infections. Biomed Mater. 2017; 12(4):045010. The pH was adjusted to acidic condition with 1 N HCL. The minimal bactericidal concentration (MBC) was determined by plating 5 μL of broth culture from the MIC assay onto Müller-Hinton agar (BD Biosciences) supplemented with 10% FBS. After 72 h, the lowest concentration at which colonies were not observed was reported as the MBC.

H. pylori [2] = assay: MIC by broth microdilution assay against H. pylori; assay type: cell-based; conditions: Helicobacter pylori, 72 h
Method: as §1

H. pylori [3] = assay: MIC in acidic pH environments; assay type: cell-based; conditions: Helicobacter pylori
Method: as §1
MIC data in acidic pH is shown in Table 6 for selected compounds identified by compound number.

H. pylori strain 43504 = assay: MIC against H. pylori strain 43504; assay type: cell-based, Helicobacter pylori
Method: as §1

H. pylori [4] = assay: Antibacterial synergy by checkerboard assay (FICI) with antibiotics and proton pump inhibitors; assay type: cell-based, Helicobacter pylori; conditions: tested with amoxicillin, clarithromycin, omeprazole and pantoprazole; synergistic effect = FICI ≤0.5
Method: Compounds 1, 13, 15, and 16 were tested with Amoxxicillin, Clarithromycin, Omeprazole, and Pantoprazole.
Antibacterial synergy was tested using the checkerboard assay. The compound of interest was combined with antibiotics and proton pump inhibitors (PPIs). In this series of experiments cultures of H. pylori were adjusted to OD600=0.06 and added to compound pairs that had been serially diluted in the same 96-well plates, vertically for one compound and horizontally for the other. Assays were carried out in triplicate as described in the antibacterial susceptibility assay sub-section. The combinatorial inhibitory concentration was indicated by the FICI. FICI=MICA combination/MICA alone+MICB combination/MICB alone.

H. pylori strain 51932 = assay: MIC against H. pylori strain 51932; assay type: cell-based, Helicobacter pylori
Method: as §1

H. pylori strain 49503 = assay: MIC against H. pylori strain 49503; assay type: cell-based, Helicobacter pylori
Method: as §1

[5] = H. pylori, lowest concentration without colonies after 72 h, read-out: MBC
[6] = H. pylori, Müller-Hinton broth with 10% FBS, 37° C., 3 days, read-out: MIC

Structure (SMILES)	MBC (H. pylori [1]; [5]) [µg/mL]	MIC (H. pylori [2]; [6]) [µg/mL]	MBC (H. pylori [1]; 72 h) [µg/mL]	MIC (H. pylori [2]) [µg/mL]	further results
Br.Nc1nc2c(s1)CCc1oc([N+](=O)[O-])cc1-2 [Compound 9]	4	4			
O=[N+]([O-])c1ccc(/C=N/N=C/c2ccc([N+](=O)[O-])o2)o1 [Compound 14]			4 (≈ 14.4 µM)	4 (≈ 14.4 µM)	
O=C(/C=C/c1ccccc1)N/N=C/c1ccc([N+](=O)[O-])o1 [Compound 11]	1 (≈ 3.51 µM)	1 (≈ 3.51 µM)			
CC1(C)S[C@@H]2[C@H](NC(=O)[C@H](N)c3ccc(O)cc3)C(=O)N2[C@H]1C(=O)O [Amoxicillin, reference compound]	0.025 (≈ 0.0684 µM)	0.01 (≈ 0.0274 µM)			
Cc1ccc(NP(=O)(N/N=C/c2ccc([N+](=O)[O-])o2)N2CCOCC2)cc1 (stereo not shown) [Compound 8]	4 (≈ 10.2 µM)	4 (≈ 10.2 µM)			
O=C1CCCc2oc([N+](=O)[O-])cc21 [Compound 12]	1 (≈ 5.52 µM)	1 (≈ 5.52 µM)			
O=C(/C=C/c1ccccc1)N/N=C1\CCCc2oc([N+](=O)[O-])cc21 [Compound 16]	0.25 (≈ 0.768 µM)	0.25 (≈ 0.768 µM)			MIC (H. pylori [3]; pH 5.5, read-out: MIC): 0.06 µg/mL (≈ 0.184 µM); MIC (H. pylori [3]; pH 6.5, read-out: MIC): 0.25 µg/mL (≈ 0.768 µM); MIC (H. pylori [3]; pH 6.0, read-out: MIC): 0.25 µg/mL (≈ 0.768 µM); MIC (H. pylori [3]; pH 7.0, read-out: MIC): 0.25 µg/mL (≈ 0.768 µM); MIC (H. pylori strain 43504): 1.0 µg/mL (≈ 3.07 µM); Combination effect with secondary agent (FIG. 1) (H. pylori [4]): synergistic effect
CCOP(=O)(N/N=C/c1ccc([N+](=O)[O-])o1)Nc1ccc(Cl)cc1 (stereo not shown) [Compound 4]			1 (≈ 2.68 µM)	1 (≈ 2.68 µM)	
CCOP(=O)(N/N=C1\CCCc2oc([N+](=O)[O-])cc21)Nc1ccccc1 (stereo not shown) [Compound 15]			0.25 (≈ 0.661 µM)	0.25 (≈ 0.661 µM)	MIC (H. pylori strain 51932): 0.25 µg/mL (≈ 0.661 µM); MIC (H. pylori strain 49503): 0.25 µg/mL (≈ 0.661 µM); MIC (H. pylori [3]; pH 5.5): 0.06 µg/mL (≈ 0.159 µM); MIC (H. pylori [3]; pH 6): 0.25 µg/mL (≈ 0.661 µM); MIC (H. pylori [3]; pH 6.5): 0.25 µg/mL (≈ 0.661 µM); MIC (H. pylori [3]; pH 7): 0.25 µg/mL (≈ 0.661 µM); MIC (H. pylori strain 43504): 1.0 µg/mL (≈ 2.64 µM); Combination effect with secondary agent (FIG. 1) (H. pylori [4]): synergistic effect
NC(=O)N/N=C1/CCCc2oc([N+](=O)[O-])cc21 [Compound 13]	0.25 (≈ 1.05 µM)	0.25 (≈ 1.05 µM)			MIC (H. pylori [3]; pH 5.5, read-out: MIC): 0.06 µg/mL (≈ 0.252 µM); MIC (H. pylori [3]; pH 6.5, read-out: MIC): 0.25 µg/mL (≈ 1.05 µM); MIC (H. pylori [3]; pH 6.0, read-out: MIC): 0.25 µg/mL (≈ 1.05 µM); MIC (H. pylori [3]; pH 7.0, read-out: MIC): 0.25 µg/mL (≈ 1.05 µM); MIC (H. pylori strain 43504): 0.5 µg/mL (≈ 2.1 µM); Combination effect with secondary agent (FIG. 1) (H. pylori [4]): synergistic effect
O=C(Nc1ccc([N+](=O)[O-])cc1Cl)c1cc(Cl)ccc1O [Niclosamide, reference compound]	0.5 (≈ 1.53 µM)	0.25 (≈ 0.764 µM)			
CCOP(=O)(N/N=C/c1ccc([N+](=O)[O-])o1)Nc1ccccc1 (stereo not shown) [Compound 1]			2 (≈ 5.91 µM)	1 to 2 (≈ 2.96 to 5.91 µM)	MIC (H. pylori strain 51932): 1.0 µg/mL (≈ 2.96 µM); MIC (H. pylori strain 49503): 1.0-2.0 μ/mL; MIC (H. pylori [3]; pH 5.5): 0.25 µg/mL (≈ 0.739 µM); MIC (H. pylori [3]; pH 6): 1 µg/mL (≈ 2.96 µM); MIC (H. pylori [3]; pH 6.5): 1 µg/mL (≈ 2.96 µM); MIC (H. pylori [3]; pH 7): 1 µg/mL (≈ 2.96 µM); MIC (H. pylori strain 43504): 2.0 µg/mL (≈ 5.91 µM); Combination effect with secondary agent (FIG. 1) (H. pylori [4]): synergistic effect
CCOP(=O)(N/N=C/c1ccc([N+](=O)[O-])o1)Nc1ccc2c(c1)OCO2 (stereo not shown) [Compound 6]			2 (≈ 5.23 µM)	2 (≈ 5.23 µM)	
Br.CNc1nc2c(s1)CCc1oc([N+](=O)[O-])cc1-2 [Compound 10]	4	4			
CCOP(=O)(NCc1ccccc1)N/N=C/c1ccc([N+](=O)[O-])o1 (stereo not shown) [Compound 7]			2 (≈ 5.68 µM)	2 (≈ 5.68 µM)	
CCOP(=O)(N/N=C/c1ccc([N+](=O)[O-])o1)Nc1ccc(Cl)c(Cl)c1 (stereo not shown) [Compound 5]			1 (≈ 2.46 µM)	1 (≈ 2.46 µM)	
CCOP(=O)(N/N=C/c1ccc([N+](=O)[O-])o1)Nc1ccc(C)cc1 (stereo not shown) [Compound 2]			2 (≈ 5.68 µM)	2 (≈ 5.68 µM)	
CCOP(=O)(N/N=C/c1ccc([N+](=O)[O-])o1)Nc1ccc(OC)cc1 (stereo not shown) [Compound 3]			2 (≈ 5.43 µM)	2 (≈ 5.43 µM)	
